Read-outs that look alike come from different tables or passages of the source.
Key:
[1] = tested on: wild-type HIV-1 (HIV-1LAI) in H9 cells (non-permissive); assay: microbe, parasite or virus in culture; assay type: cell-based
[2] = tested on: wild-type HIV-1 (HIV-1LAI) in MT-4 cells (permissive); assay: Antiviral activity assay: wild-type HIV-1 in permissive MT4 cells, reverse transcriptase activity in culture supernatants; assay type: cell-based
[3] = Human immunodeficiency virus 1, H9, read-out: Antiviral activity (IC50 μM) H9, Table 2, wild-type HIV-1, non-permissive H9 cells
[4] = Human immunodeficiency virus 1, H9, read-out: Antiviral activity (IC50 μM) H9 Cells, Table 4, wild-type HIV-1, non-permissive H9 cells
[5] = Human immunodeficiency virus 1, H9, read-out: Antiviral activity (IC50 μM) H9 Cells, Table 7, wild-type HIV-1, non-permissive H9 cells
[6] = Human immunodeficiency virus 1, H9, read-out: Antiviral activity (IC50 μM) H9 cells, Table 5, wild-type HIV-1, non-permissive H9 cells
[7] = Human immunodeficiency virus 1, H9, read-out: Antiviral activity (IC50 μM) H9 cells, Table 8, wild-type HIV-1, non-permissive H9 cells
[8] = Human immunodeficiency virus 1, H9, read-out: Antiviral activity (IC50 μM) H9 cells, wild-type HIV-1 (HIV-1LAI), H9 cells (non-permissive), RT activity in culture supernatants, compounds 1 to 50 μM
[9] = Human immunodeficiency virus 1, MT4, Table 2, wild-type HIV-1, permissive MT4 cells, read-out: Antiviral activity (IC50 μM) MT4
[10] = Human immunodeficiency virus 1, MT4, wild-type HIV-1 (HIV-1LAI), MT4 cells (permissive), RT activity in culture supernatants, compounds 1 to 50 μM, read-out: Antiviral activity (IC50 μM) MT4 cells
[11] = Human immunodeficiency virus 1, H9, read-out: IC50, anti-HIV-1 activity, non-permissive H9 cells
[12] = read-out: Antiviral activity (IC50 μM) H9 cells, Table 5, wild-type HIV-1, non-permissive H9 cells
[13] = read-out: Antiviral activity (IC50 μM) H9 cells, Table 8, wild-type HIV-1, non-permissive H9 cells
[14] = read-out: Antiviral activity (IC50 μM) H9 cells, wild-type HIV-1 (HIV-1LAI), H9 cells (non-permissive), RT activity in culture supernatants, compounds 1 to 50 μM

Structure (SMILES)	IC50 [1, 3] [µM]	IC50 [1, 4] [µM]	IC50 [1, 5] [µM]	IC50 [1, 6] [µM]	IC50 [1, 7] [µM]	IC50 [1, 8] [µM]	IC50 [2, 9] [µM]	IC50 [2, 10] [µM]	IC50 [1, 11] [µM]	IC50 ([1]; read-out: Antiviral activity (IC50 μM) H9, Table 2, wild-type HIV-1, non-permissive H9 cells) [µM]	IC50 [1, 12] [µM]	IC50 [1, 13] [µM]	IC50 [1, 14] [µM]
COc1ccccc1-n1cc(-c2ccccc2S(=O)(=O)c2ccc([N+](=O)[O-])cc2)nn1 [Compound 2ay, 1-(2-Methoxyphenyl)-4-(2-((4-nitrophenyl)sulfonyl)phenyl)-1H-1,2,3-triazole]	13.8	13.8	13.8	13.8	13.8	13.8	> 50	> 50	–	–	–	–	–
COC(=O)c1ccc(Sc2ccccc2-c2cn(-c3ccccc3OC)nn2)cc1 [Compound 2bx, Methyl 4-((2-(1-(2-methoxyphenyl)-1H-1,2,3-triazol-4-yl)phenyl)thio)benzoate]	> 50	–	–	> 50	> 50	> 50	> 50	> 50	–	–	–	–	–
COC(=O)c1ccc(S(=O)(=O)c2ccccc2-c2cn(-c3ccccc3OC)nn2)cc1 [Compound 2by, Methyl 4-((2-(1-(2-methoxyphenyl)-1H-1,2,3-triazol-4-yl)phenyl)sulfonyl)benzoate]	> 50	–	–	> 50	> 50	> 50	> 50	> 50	–	–	–	–	–
COc1ccc(S(=O)(=O)c2ccccc2-c2cn(-c3ccccc3OC)nn2)cc1 [Compound 2cy, 1-(2-Methoxyphenyl)-4-(2-((4-methoxyphenyl)sulfonyl)phenyl)-1H-1,2,3-triazole]	4.3	4.3	4.3	4.3	4.3	4.3	> 50	> 50	–	–	–	–	–
COc1ccccc1-n1cc(-c2ccccc2S(=O)(=O)c2ccc(C(F)(F)F)cc2)nn1 [Compound 2dy, 1-(2-Methoxyphenyl)-4-(2-((4-(trifluoromethyl)phenyl)sulfonyl)phenyl)-1H-1,2,3-triazole]	4.8	4.8	4.8	4.8	4.8	4.8	> 50	> 50	–	–	–	–	–
COc1ccccc1-n1cc(-c2ccccc2Sc2ccc(N)cc2)nn1 [Compound 2ex, 4-((2-(1-(2-Methoxyphenyl)-1H-1,2,3-triazol-4-yl)phenyl)thio)aniline]	2.5	7.5	2.5	2.5	2.5	2.5	> 50	> 50	1 to 3	–	–	–	–
COc1ccccc1-n1cc(-c2ccccc2Sc2ccc(C(=O)O)cc2)nn1 [Compound 2fx, 4-((2-(1-(2-Methoxyphenyl)-1H-1,2,3-triazol-4-yl)phenyl)thio)benzoic Acid]	1	1	1	1	1	1	> 50	> 50	1 to 3	–	–	–	–
COc1ccccc1-n1cc(-c2ccccc2S(=O)(=O)c2ccc(C(=O)O)cc2)nn1 [Compound 2fy, 4-((2-(1-(2-Methoxyphenyl)-1H-1,2,3-triazol-4-yl)phenyl)sulfonyl)benzoic acid]	8.2	8.2	8.2	8.2	8.2	8.2	> 50	> 50	–	–	–	–	–
COc1cccc(-n2cc(-c3ccccc3Sc3ccc([N+](=O)[O-])cc3)nn2)c1OC [Compound 3ax, 1-(2,3-Dimethoxyphenyl)-4-(2-((4-nitrophenyl)thio)phenyl)-1H-1,2,3-triazole]	1.1	1.1	1.1	1.1	1.1	1.1	> 50	> 50	1 to 3	–	–	–	–
COc1cccc(-n2cc(-c3ccccc3S(=O)(=O)c3ccc([N+](=O)[O-])cc3)nn2)c1OC [Compound 3ay, 1-(2,3-Dimethoxyphenyl)-4-(2-((4-nitrophenyl)sulfonyl)phenyl)-1H-1,2,3-triazole]	> 50	–	–	> 50	> 50	> 50	> 50	> 50	–	–	–	–	–
COC(=O)c1ccc(Sc2ccccc2-c2cn(-c3cccc(OC)c3OC)nn2)cc1 [Compound 3bx, Methyl 4-((2-(1-(2,3-dimethoxyphenyl)-1H-1,2,3-triazol-4-yl)phenyl)thio)benzoate]	8	8	8	8	8	8	> 50	> 50	–	–	–	–	–
COC(=O)c1ccc(S(=O)(=O)c2ccccc2-c2cn(-c3cccc(OC)c3OC)nn2)cc1 [Compound 3by, Methyl 4-((2-(1-(2,3-dimethoxyphenyl)-1H-1,2,3-triazol-4-yl)phenyl)sulfonyl)benzoate]	4.7	4.7	4.7	4.7	4.7	4.7	> 50	> 50	–	–	–	–	–
COc1ccc(S(=O)(=O)c2ccccc2-c2cn(-c3cccc(OC)c3OC)nn2)cc1 [Compound 3cy, 1-(2,3-Dimethoxyphenyl)-4-(2-((4-methoxyphenyl)sulfonyl)phenyl)-1H-1,2,3-triazole]	> 50	–	–	> 50	> 50	> 50	> 50	> 50	–	–	–	–	–
COc1cccc(-n2cc(-c3ccccc3Sc3ccc(C(F)(F)F)cc3)nn2)c1OC [Compound 3dx, 1-(2,3-Dimethoxyphenyl)-4-(2-((4-(trifluoromethyl)phenyl)thio)phenyl)-1H-1,2,3-triazole]	1.9	1.9	1.9	1.9	1.9	1.9	> 50	> 50	1 to 3	–	–	–	–
COc1cccc(-n2cc(-c3ccccc3S(=O)(=O)c3ccc(C(F)(F)F)cc3)nn2)c1OC [Compound 3dy, 1-(2,3-Dimethoxyphenyl)-4-(2-((4-(trifluoromethyl)phenyl)sulfonyl)phenyl)-1H-1,2,3-triazole]	> 50	–	–	> 50	> 50	> 50	> 50	> 50	–	–	–	–	–
COc1cccc(-n2cc(-c3ccccc3S(=O)(=O)c3ccc(N)cc3)nn2)c1OC [Compound 3ey, 4-((2-(1-(2,3-Dimethoxyphenyl)-1H-1,2,3-triazol-4-yl)phenyl)sulfonyl)aniline]	12.4	12.4	12.4	12.4	12.4	12.4	> 50	> 50	–	–	–	–	–
COc1cccc(-n2cc(-c3ccccc3Sc3ccc(C(=O)O)cc3)nn2)c1OC [Compound 3fx, 4-((2-(1-(2,3-Dimethoxyphenyl)-1H-1,2,3-triazol-4-yl)phenyl)thio)benzoic Acid]	2.8	2.8	2.8	2.8	2.8	2.8	> 50	> 50	1 to 3	–	–	–	–
COc1cccc(OC)c1-n1cc(-c2ccccc2S(=O)(=O)c2ccc(C(=O)O)cc2)nn1 [Compound 6gy, 2-Hydroxy-N,N,N-trimethylethanaminium 4-((2-(1-(2,6-dimethoxyphenyl)-1H-1,2,3-triazol-4-yl)phenyl)sulfonyl)benzoate]	–	–	–	–	–	–	–	–	–	> 50	> 50	> 50	> 50
COC(=O)c1ccc(S(=O)(=O)c2ccccc2-c2cn(-c3c(F)cccc3OC)nn2)cc1 [Compound 7by, Methyl 4-((2-(1-(2-fluoro-6-methoxyphenyl)-1H-1,2,3-triazol-4-yl)phenyl)sulfonyl)benzoate]	–	–	–	> 50	> 50	> 50	–	–	–	–	–	–	–
COc1ccc(Sc2ccccc2-c2cn(-c3c(F)cccc3OC)nn2)cc1 [Compound 7cx, 1-(2-Fluoro-6-methoxyphenyl)-4-(2-((4-methoxyphenyl)thio)phenyl)-1H-1,2,3-triazole]	–	–	–	> 50	> 50	> 50	–	–	–	–	–	–	–
COc1cccc(F)c1-n1cc(-c2ccccc2Sc2ccc(C(F)(F)F)cc2)nn1 [Compound 7dx, 1-(2-Fluoro-6-methoxyphenyl)-4-(2-((4-(trifluoromethyl)phenyl)thio)phenyl)-1H-1,2,3-triazole]	–	–	–	10	10	10	–	–	–	–	–	–	–
COc1cccc(F)c1-n1cc(-c2ccccc2Sc2ccc(C(=O)O)cc2)nn1 [Compound 7gx, 2-Hydroxy-N,N,N-trimethylethanaminium 4-((2-(1-(2-fluoro-6-methoxyphenyl)-1H-1,2,3-triazol-4-yl)phenyl)thio)benzoate]	–	–	–	–	–	–	–	–	–	–	> 50	> 50	> 50

Source: patent US11136301B2, “Broad spectrum antiviral compounds and uses thereof” (The Regents Of The University Of California, priority 2015, dated 2021)
